The first test has as its system IL-23-stimulated Kit225 T cells with STAT-dependent luciferase reporter. Nature of the test: Kit225 T cell assay, STAT-dependent luciferase reporter, IL-23 stimulated. To be noted: 20 ng/mL human recombinant IL-23, 5-6 hours, read-out: IL-23 Kit225 Reporter, LE (IC50). It is filed as cell-based, human. On the procedure: (§1) Kit225 T cells with a stably-integrated STAT-dependent luciferase reporter were plated in RPMI (GIBCO) containing 10% heat-inactivated FBS (GIBCO) and 100 U/mL PenStrep (GIBCO). The cells were then stimulated with either 20 ng/mL human recombinant IL-23 or 200 U/mL human recombinant IFNα (PBL InterferonSource) for 5-6 hours. Luciferase expression was measured using the STEADY-GLO® Luciferase Assay System (PROMEGA®) according to the manufacturer's instructions.
Regarding `CNc1cc(Nc2cccn(-c3ccc(C)nn3)c2=O)nn2c(C(=O)NC(C)C)cnc12` [Example 97], the IC50 was determined as 190 nM.

`CNc1cc(Nc2cccn(-c3ccc(C4CC4)nn3)c2=O)nn2c(C(=O)N[C@@H]3C[C@@H]3F)cnc12` [Example 98]: the IC50 was 40 nM.

`CCNC(=O)c1cnc2c(NC)cc(Nc3cccn(-c4ccc(C)nn4)c3=O)nn12` [Example 99]: the IC50 was 110 nM.

On to `CCCc1ccc(-n2cccc(Nc3cc(NC)c4ncc(C(=O)N[C@@H]5C[C@@H]5F)n4n3)c2=O)nn1` [Example 100], for which the IC50 amounted to 40 nM.

For `CNc1cc(Nc2cccn(-c3ccc(C)nn3)c2=O)nn2c(C(=O)NCCF)cnc12` [Example 102], the IC50 was determined as 260 nM.

As for `CNc1cc(Nc2cccn(-c3cnc(C)cn3)c2=O)nn2c(C(=O)N[C@@H]3C[C@@H]3F)cnc12` [Example 103], the concentration for half-maximal inhibition (IC50) is 60 nM.

`CNc1cc(Nc2cccn(-c3cccnn3)c2=O)nn2c(C(=O)NC3CCC3)cnc12` [Example 104]: the IC50 amounted to 200 nM.

As for `CCC(C)NC(=O)c1cnc2c(NC)cc(Nc3cccn(-c4cccnn4)c3=O)nn12` (stereo not drawn) [Example 105], the IC50 turned out to be 320 nM.

For `CCNC(=O)c1cnc2c(NC)cc(Nc3cccn(-c4ccn(C)n4)c3=O)nn12` [Example 107], the IC50 was determined as 230 nM.

In the case of `CNc1cc(Nc2cccn(-c3ccn(C)n3)c2=O)nn2c(C(=O)NC(C)C)cnc12` [Example 108], the IC50 came out at 210 nM.

Consider `CNc1cc(Nc2cccn(-c3cccnn3)c2=O)nn2c(C(=O)NCC(C)C)cnc12` [Example 112], for which the IC50 stood at 280 nM.

With `CNc1cc(Nc2cccn(C)c2=O)nn2c(C(=O)N[C@@H]3C[C@@H]3F)cnc12` [Example 116], the IC50 was determined as 80 nM.

Regarding `CNc1cc(Nc2cccn(C)c2=O)nn2c(C(=O)NCC(C)(C)CO)cnc12` [Example 117], the IC50 stood at 240 nM.

`CNc1cc(Nc2cccn(-c3ccccc3)c2=O)nn2c(C(=O)NC3CC3)cnc12` [Example 119]: the IC50 stood at 80 nM.

For the molecule `CNc1cc(Nc2cccn(-c3ccccc3)c2=O)nn2c(C(=O)NC3(C#N)CC3)cnc12` [Example 120], the IC50 worked out at 200 nM.

As to `CNc1cc(Nc2cc(F)cn(CC(C)(C)O)c2=O)nn2c(C(=O)NC3CC3)cnc12` [Example 121], the IC50 stood at 590 nM.

On to `CNc1cc(Nc2cccn(-c3ccncc3)c2=O)nn2c(C(=O)NC3CC3)cnc12` [Example 128], for which the IC50 worked out at 440 nM.

On to `CNc1cc(Nc2cccn(C)c2=O)nn2c(C(=O)NC(C)C#N)cnc12` (stereo not drawn) [Example 129], for which the IC50 turned out to be 440 nM.

With `CNc1cc(Nc2cccn(C)c2=O)nn2c(C(=O)NC(C)(C)C#N)cnc12` [Example 130], the IC50 was 640 nM.

Take `CNc1cc(Nc2cccn(-c3ccnc(F)c3)c2=O)nn2c(C(=O)NC3CC3)cnc12` [Example 134]: the IC50 was found to be 220 nM.

As for `CNc1cc(Nc2cccn(-c3ccc(C(C)O)cc3)c2=O)nn2c(C(=O)NC3CC3)cnc12` (stereo not drawn) [Example 135], the IC50 was determined as 280 nM.

On to `CNc1cc(Nc2cccn(-c3ccc(C(F)(F)F)cc3)c2=O)nn2c(C(=O)NC3(C#N)CC3)cnc12` [Example 137], for which the IC50 was determined as 290 nM.

Consider `CNc1cc(Nc2cccn(-c3ccc(N4CCOCC4)cc3)c2=O)nn2c(C(=O)NC3CC3)cnc12` [Example 139], for which the IC50 came to 250 nM.

For `CNc1cc(Nc2cccn(-c3ccc(C(C)O)cc3)c2=O)nn2c(C(=O)N[C@@H]3C[C@@H]3F)cnc12` (stereo partly drawn) [Example 141], the IC50 was 160 nM.

In the case of `CNc1cc(Nc2cccn(-c3ccc(C(C)O)cc3)c2=O)nn2c(C(=O)NC3CCC3)cnc12` (stereo not drawn) [Example 142], the IC50 was determined as 70 nM.

With `CNc1cc(Nc2cccn(-c3cccc(F)n3)c2=O)nn2c(C(=O)NC3CC3)cnc12` [Example 144], the IC50 was found to be 140 nM.

On to `CNc1cc(Nc2cccn(-c3ccc(N4CCOCC4)cc3)c2=O)nn2c(C(=O)NC3CC3F)cnc12` (stereo not drawn) [Example 147], for which the IC50 came to 30 nM.

A further test has as its system IFNα-stimulated Kit225 T cells with STAT-dependent luciferase reporter. Put plainly: Kit225 T cell assay, STAT-dependent luciferase reporter, IFNα stimulated. It is filed as cell-based, human. To be noted: 200 U/mL human recombinant IFNα, 5-6 hours, read-out: IFNa Kit225 Reporter, LE (IC50). As to the method: as §1
In general terms: A reporter such as luciferase makes a cellular process visible.
Turning to `CNc1cc(Nc2cccn(-c3ccc(C)nn3)c2=O)nn2c(C(=O)NC(C)C)cnc12` [Example 97], the IC50 came out at 110 nM.

Regarding `CNc1cc(Nc2cccn(-c3ccc(C4CC4)nn3)c2=O)nn2c(C(=O)N[C@@H]3C[C@@H]3F)cnc12` [Example 98], the IC50 came out at 20 nM.

`CCNC(=O)c1cnc2c(NC)cc(Nc3cccn(-c4ccc(C)nn4)c3=O)nn12` [Example 99]: the IC50 came out at 230 nM.

Take `CCCc1ccc(-n2cccc(Nc3cc(NC)c4ncc(C(=O)N[C@@H]5C[C@@H]5F)n4n3)c2=O)nn1` [Example 100]: the IC50 is 30 nM.

For the molecule `CNc1cc(Nc2cccn(-c3ccc(C)nn3)c2=O)nn2c(C(=O)NCCF)cnc12` [Example 102], the IC50 was found to be 260 nM.

As for `CNc1cc(Nc2cccn(-c3cnc(C)cn3)c2=O)nn2c(C(=O)N[C@@H]3C[C@@H]3F)cnc12` [Example 103], the IC50 is 20 nM.

For the molecule `CNc1cc(Nc2cccn(-c3cccnn3)c2=O)nn2c(C(=O)NC3CCC3)cnc12` [Example 104], the IC50 amounted to 80 nM.

With `CCC(C)NC(=O)c1cnc2c(NC)cc(Nc3cccn(-c4cccnn4)c3=O)nn12` (stereo not drawn) [Example 105], the IC50 was 90 nM.

Turning to `CCNC(=O)c1cnc2c(NC)cc(Nc3cccn(-c4ccn(C)n4)c3=O)nn12` [Example 107], the IC50 worked out at 270 nM.

On to `CNc1cc(Nc2cccn(-c3ccn(C)n3)c2=O)nn2c(C(=O)NC(C)C)cnc12` [Example 108], for which the IC50 stood at 80 nM.

On to `CNc1cc(Nc2cccn(-c3cccnn3)c2=O)nn2c(C(=O)NCC(C)C)cnc12` [Example 112], for which the IC50 stood at 520 nM.

For the molecule `CNc1cc(Nc2cccn(C)c2=O)nn2c(C(=O)N[C@@H]3C[C@@H]3F)cnc12` [Example 116], the concentration for half-maximal inhibition (IC50) came out at 50 nM.

On to `CNc1cc(Nc2cccn(C)c2=O)nn2c(C(=O)NCC(C)(C)CO)cnc12` [Example 117], for which the IC50 is 150 nM.

With `CNc1cc(Nc2cccn(-c3ccccc3)c2=O)nn2c(C(=O)NC3CC3)cnc12` [Example 119], the IC50 worked out at 120 nM.

For the molecule `CNc1cc(Nc2cccn(-c3ccccc3)c2=O)nn2c(C(=O)NC3(C#N)CC3)cnc12` [Example 120], the IC50 came to 70 nM.

On to `CNc1cc(Nc2cc(F)cn(CC(C)(C)O)c2=O)nn2c(C(=O)NC3CC3)cnc12` [Example 121], for which the IC50 was 290 nM.

For `CNc1cc(Nc2cccn(-c3ccncc3)c2=O)nn2c(C(=O)NC3CC3)cnc12` [Example 128], the IC50 is 240 nM.

With `CNc1cc(Nc2cccn(C)c2=O)nn2c(C(=O)NC(C)C#N)cnc12` (stereo not drawn) [Example 129], the IC50 turned out to be 160 nM.

Regarding `CNc1cc(Nc2cccn(C)c2=O)nn2c(C(=O)NC(C)(C)C#N)cnc12` [Example 130], the IC50 was 310 nM.

Turning to `CNc1cc(Nc2cccn(-c3ccnc(F)c3)c2=O)nn2c(C(=O)NC3CC3)cnc12` [Example 134], the IC50 came out at 140 nM.

With `CNc1cc(Nc2cccn(-c3ccc(C(C)O)cc3)c2=O)nn2c(C(=O)NC3CC3)cnc12` (stereo not drawn) [Example 135], the IC50 worked out at 240 nM.

As to `CNc1cc(Nc2cccn(-c3ccc(C(F)(F)F)cc3)c2=O)nn2c(C(=O)NC3(C#N)CC3)cnc12` [Example 137], the IC50 was 140 nM.

With `CNc1cc(Nc2cccn(-c3ccc(N4CCOCC4)cc3)c2=O)nn2c(C(=O)NC3CC3)cnc12` [Example 139], the IC50 stood at 190 nM.

Turning to `CNc1cc(Nc2cccn(-c3ccc(C(C)O)cc3)c2=O)nn2c(C(=O)N[C@@H]3C[C@@H]3F)cnc12` (stereo partly drawn) [Example 141], the IC50 is 180 nM.

For `CNc1cc(Nc2cccn(-c3ccc(C(C)O)cc3)c2=O)nn2c(C(=O)NC3CCC3)cnc12` (stereo not drawn) [Example 142], the IC50 turned out to be 90 nM.

As for `CNc1cc(Nc2cccn(-c3cccc(F)n3)c2=O)nn2c(C(=O)NC3CC3)cnc12` [Example 144], the IC50 is 80 nM.

Consider `CNc1cc(Nc2cccn(-c3ccc(N4CCOCC4)cc3)c2=O)nn2c(C(=O)NC3CC3F)cnc12` (stereo not drawn) [Example 147], for which the IC50 was 20 nM.

As a reminder, the IC50 is the midpoint of a concentration-inhibition curve.

The record behind these values is patent US10273237B2, “Imidazopyridazine compounds useful as modulators of IL-12, IL-23 and/or IFN-α responses” (BRISTOL-MYERS SQUIBB COMPANY, priority 2013, dated 2019).
